Experimental data from the RepoRT retention time repository.

Assay: Agilent ZORBAX 300 SB-C18, 150 × 1 mm, 3.5 µm; A: water + 0.01% heptafluorobutyric acid; B: acetonitrile + 0.01% heptafluorobutyric acid; gradient (min/%B) 0/0 100/90
Details: stereoisomer not certain

`COC(=O)Cn1c(C)cc(C)c(N)c1=O` and `COC(=O)CCc1ccc(C)c(N)c1` are within 1.5-fold of each other in LC retention time: 7.8 min for the first, 9.03 min for the second.

`Cc1ccc(C)c(NC(=O)C(=O)NCC(C)O)c1` (configuration not stated) and `CC(=O)Nc1c(C)cc(C)cc1NC(=O)c1cc2ccccc2o1` are within 1.5-fold of each other in LC retention time: 10.5 min for the first, 12.5 min for the second.

Going from `NC1C(O)OC(CO)C(O)C1O` (configuration not stated) to `CN1C2CCC1CC(OC(=O)C(CO)c1ccccc1)C2` (configuration not stated), the LC retention time rises from 2.77 min to 8.92 min (3.2-fold).

`CCN(C(C)C)C(C)C` and `CC(C)CC(N)C(N)=O` (configuration not stated) are within 1.5-fold of each other in LC retention time: 7.51 min for the first, 6.71 min for the second.

`Cc1ccccc1CN1CCN(Cc2c[nH]c3ccccc23)CC1` and `OC(Cc1c[nH]c2ccccc12)(c1ccccc1)c1ccccc1` are within 1.5-fold of each other in LC retention time: 10.8 min for the first, 16.1 min for the second.

`c1cncc(CNc2c3c(nc4ccccc24)CCC3)c1` and `c1ccc2[nH]c(CCn3c4c(c5ccccc53)CCCC4)nc2c1` are within 1.5-fold of each other in LC retention time: 8.56 min for the first, 12 min for the second.

`Cn1c2c(c(=O)n(C)c1=O)C(CC(=O)O)C(=O)N2` (configuration not stated) and `Cn1c(=O)c2cc(C(=O)O)ccc2n(C)c1=O` are within 1.5-fold of each other in LC retention time: 6.06 min for the first, 8.5 min for the second.

`CNC(C)(C)Cc1ccccc1` and `O=C(O)CC(NC(=O)OCc1ccccc1)C(=O)O` (configuration not stated) are within 1.5-fold of each other in LC retention time: 8.99 min for the first, 9.01 min for the second.

`CN(C)c1nc(N(C)C)nc(N(C)C)n1` and `CN(C)c1ccncc1` are within 1.5-fold of each other in LC retention time: 9.15 min for the first, 7.29 min for the second.

`CC(=O)Nc1cc(NC(C)=O)c(C)c(C(=O)O)c1` and `Cc1c(N)cc(N)cc1NC(=O)c1ccccc1` are within 1.5-fold of each other in LC retention time: 6.32 min for the first, 8.28 min for the second.

`CCOC(N)=O` and `CCCN1CCCC(C(N)=O)C1` (configuration not stated) are within 1.5-fold of each other in LC retention time: 4.72 min for the first, 6.49 min for the second.

`c1ccc(-c2nc(-c3cccnc3)[nH]c2-c2ccccc2)cc1` and `c1ccc(Oc2nnc(-c3ccccc3)c3ccccc23)cc1` are within 1.5-fold of each other in LC retention time: 11 min for the first, 15.8 min for the second.

First: O=C1CCC(=O)N1c1ccc(S(=O)(=O)O)cc1
Second: Cc1ccc(C)n1-c1ccc(C(=O)O)cc1
The LC retention time of the first is 8.3-fold lower: 1.56 min for the first, 13 min for the second.

Compared with `O=C(NCCc1ccc2oc3ccccc3c2c1)C1CCCCC1`, `CC(=O)Nc1coc2ccccc12` is 1.6-fold lower in LC retention time: 16.3 min for the first, 10.4 min for the second.

Going from `COC(=O)c1ccccc1NCc1ccccc1CNc1ccccc1C(=O)OC` to `Cc1ccccc1Nc1nc(Nc2ccccc2C)c2ccccc2n1`, the LC retention time falls from 20.7 min to 12.5 min (1.7-fold).

`NC(=O)C1CCN(C(=O)c2ccco2)CC1` and `NC(=O)C1(N2CCCCC2)CCN(C(=O)c2ccccc2)CC1` are within 1.5-fold of each other in LC retention time: 6.85 min for the first, 7.76 min for the second.

`Oc1cccc(-c2cc(-c3ccccc3)c3c(ccc4ncccc43)n2)c1` and `c1ccc(-c2cc(-c3ccccc3)n(-c3ccccc3)n2)cc1` are within 1.5-fold of each other in LC retention time: 13.7 min for the first, 19 min for the second.

`C1CCCNCC1` and `NCC1(O)CCCCC1` are within 1.5-fold of each other in LC retention time: 6.61 min for the first, 7.06 min for the second.

`CC(N)C(=O)Nc1ccc2ccccc2c1` (configuration not stated) and `NC(Cc1ccccc1)C(=O)Nc1ccc2ccccc2c1` (configuration not stated) are within 1.5-fold of each other in LC retention time: 9.02 min for the first, 10.4 min for the second.

`O=C(O)CCCc1ccncc1` and `Nc1ccncc1` are within 1.5-fold of each other in LC retention time: 6.69 min for the first, 5.68 min for the second.

`CCCCCCCCCCCCC(N)=O` and `NC(=O)CCCCCCCCCC(Cc1ccccc1)C(=O)O` (configuration not stated) are within 1.5-fold of each other in LC retention time: 18.2 min for the first, 13.3 min for the second.

`Cc1cc(N)c(N)cc1C` and `COc1ccc(N)c(C)c1C` are within 1.5-fold of each other in LC retention time: 7.98 min for the first, 8.59 min for the second.

`c1ccc(-n2cnnn2)cc1` and `c1ccc2c(-n3ccnc3)nccc2c1` are within 1.5-fold of each other in LC retention time: 9.44 min for the first, 8.37 min for the second.

`CC(C)c1ccc(C=C2Nc3ccccc3C2=O)cc1` and `Cc1ccc(C=Cc2nnc(-c3ccccc3C)o2)cc1` are within 1.5-fold of each other in LC retention time: 16.9 min for the first, 18.1 min for the second.

`Cc1cccc(C(=O)N2CCc3c([nH]c4ccccc34)C2c2ccccc2)c1` (configuration not stated) and `c1ccc2c(c1)CCc1c-2[nH]c2ccccc12` are within 1.5-fold of each other in LC retention time: 17.8 min for the first, 17.1 min for the second.

First: O=C(NCCO)C(=O)NC(c1ccccc1)c1ccccc1
Second: O=C(NCCCCc1ccccc1)c1ccc2ccccc2n1
The LC retention time of the first is 1.5-fold lower: 11.2 min for the first, 17.2 min for the second.

Going from `Nc1ccc2c(c1)COc1ccccc1O2` to `c1ccc(C2=Nc3ccccc3Oc3ccccc32)cc1`, the LC retention time rises from 10.5 min to 18.1 min (1.7-fold).

`CCCc1c(O)c2ccccc2[nH]c1=O` and `COC(=O)c1[nH]c2ccccc2c1C(=O)OC` are within 1.5-fold of each other in LC retention time: 9.59 min for the first, 11.3 min for the second.

`Cc1cc2n(n1)c1cc(C)nn1c1cc(C)nn21` and `Cc1cc(=O)[nH]c2c(C)c(N)ccc12` are within 1.5-fold of each other in LC retention time: 11.1 min for the first, 8.42 min for the second.

`Oc1ccc(-n2cccc2)cc1` and `Cc1ccc(-c2cnc3ccccc3n2)cc1` are within 1.5-fold of each other in LC retention time: 11.5 min for the first, 16.3 min for the second.

`CCCC(CCC)C(=O)NC1CCN(Cc2ccccc2)CC1` and `O=C1NCC2(CCN(CCc3ccccc3)CC2)O1` are within 1.5-fold of each other in LC retention time: 10.2 min for the first, 8.72 min for the second.

`NC(=O)c1cnc2ccccc2n1` and `O=C(NN=Cc1cccnc1)c1ccccn1` are within 1.5-fold of each other in LC retention time: 8.31 min for the first, 7.9 min for the second.

`Cc1cccc2c(=O)cc(-c3ccccc3)oc12` and `COc1ccc2c(=O)cc(-c3ccccc3)oc2c1OC` are within 1.5-fold of each other in LC retention time: 15.4 min for the first, 13.7 min for the second.

`Cn1c(=S)[nH]c2ccccc21` and `O=c1ccc2ccccc2[nH]1` are within 1.5-fold of each other in LC retention time: 9.31 min for the first, 8.83 min for the second.

`CCc1ccc(NCCC(=O)c2ccc(C(C)(C)C)cc2)cc1` and `CC(C)(C)c1ccc(C2Nc3ccccc3C(=O)N2c2ccccc2)cc1` (configuration not stated) are within 1.5-fold of each other in LC retention time: 16.5 min for the first, 16.7 min for the second.

`S=C1NCN(C2CCCCC2)CN1` and `CC1CN=C(NC2CCCCC2)S1` (configuration not stated) are within 1.5-fold of each other in LC retention time: 8.07 min for the first, 7.02 min for the second.

`CCCCN1CCCCC1C(=O)Nc1c(C)cccc1C` (configuration not stated) and `Cc1cccc(C)c1NC1=NCCCS1` are within 1.5-fold of each other in LC retention time: 10.5 min for the first, 9.58 min for the second.

`CC(=O)Nc1cc(=O)[nH]c(C)n1` and `Cc1ncc[nH]1` are within 1.5-fold of each other in LC retention time: 5.68 min for the first, 4.53 min for the second.

`Nc1ccc2[nH]ncc2c1` and `CC1=NCC(=O)N1c1cccc(N)c1` are within 1.5-fold of each other in LC retention time: 5.74 min for the first, 7.1 min for the second.

First: O=C(O)c1c[nH]c(=O)[nH]1
Second: CC(C)OC(=O)C(C)Nc1n[nH]c(=O)[nH]c1=O (configuration not stated)
The LC retention time of the first is 5.2-fold lower: 1.64 min for the first, 8.55 min for the second.

`Cc1cc(C)c2c(=O)n(CC(=O)NCCC(C)C)c(=O)n(-c3ccccc3)c2n1` and `CCCCN(C)C(=O)Cn1c(=O)c2c(C)cc(C)nc2n(-c2ccccc2)c1=O` are within 1.5-fold of each other in LC retention time: 14.4 min for the first, 15 min for the second.

`CNCCCCCCN(C)CCCCCCNC` and `NCCCCCCNCCCCCCN` are within 1.5-fold of each other in LC retention time: 7.6 min for the first, 7.37 min for the second.

`Nc1nc(=O)n2c(n1)oc1ccccc12` and `c1ccc(-c2ccc3ccccc3n2)nc1` are within 1.5-fold of each other in LC retention time: 7.8 min for the first, 11.3 min for the second.

`CCCNC(C)C(=O)Nc1c(C)csc1C(=O)OC` (configuration not stated) and `Cc1cc(O)c(C(C)C)cc1NC(=O)Cn1nc(C)c2ccccc2c1=O` are within 1.5-fold of each other in LC retention time: 9.27 min for the first, 11.9 min for the second.

`Cc1cc(O)c(C(C)C)cc1CNC(=O)c1ccccc1O` and `CCC(=O)c1ccc2c(c1)N(CC(C)N(C)C)c1ccccc1S2` (configuration not stated) are within 1.5-fold of each other in LC retention time: 14.4 min for the first, 11.8 min for the second.

`S=c1nccc(-c2ccc3ccccc3c2)[nH]1` and `Cn1c(=O)c2ccc(C(=O)Nc3ccc4ccccc4n3)cc2c(=O)n1C` are within 1.5-fold of each other in LC retention time: 10.6 min for the first, 10.4 min for the second.

`CCOc1ccc(C(c2c[nH]c3ccccc23)c2c[nH]c3ccccc23)cc1` and `CC(C)Cc1ccc(C(C)C(=O)NCCCn2c3ccccc3c3ccccc32)cc1` (configuration not stated) are within 1.5-fold of each other in LC retention time: 17.2 min for the first, 20.1 min for the second.

`Cc1cccc(C(O)(C(=O)NN(C(=O)Nc2ccccc2)c2ccccc2)c2cccc(C)c2)c1` and `N=c1oc2ccccc2cc1C(=O)Nc1ccc(Oc2ccccc2)cc1` are within 1.5-fold of each other in LC retention time: 16.3 min for the first, 13 min for the second.

`CNCCc1ccccn1` and `CNc1ccncc1` are within 1.5-fold of each other in LC retention time: 6.92 min for the first, 6.54 min for the second.

`Cc1ccc2c(CN3CCNCC3)cc(=O)oc2c1` and `CCc1c(C)nc2c(O)cccn2c1=O` are within 1.5-fold of each other in LC retention time: 8.81 min for the first, 8.76 min for the second.

`O=C(CCCCCN1C(=O)c2ccccc2C1=O)Nc1cccc(C(=O)O)c1` and `O=C1NC(=O)C(c2ccccc2)(c2ccccc2)N1` are within 1.5-fold of each other in LC retention time: 11.6 min for the first, 11 min for the second.

First: CN1CCOCC1
Second: CN1CCCN(C)C1=O
The LC retention time of the first is 1.8-fold lower: 3.96 min for the first, 6.94 min for the second.

First: C[N+](C)(C)CC(=O)O
Second: CCCCCCC1(C)OCOC1=CC[N+](C)(C)C (configuration not stated)
The LC retention time of the first is 6.5-fold lower: 1.67 min for the first, 10.8 min for the second.

`NC(=O)C1(N2CCCCC2)CCN(C(=O)C2CCCCC2)CC1` and `O=C1CC2(CCCC2)CC(=O)N1CCCCN1CCN(c2ncccn2)CC1` are within 1.5-fold of each other in LC retention time: 8.4 min for the first, 10.2 min for the second.

`COc1cc(C=CC(=O)c2ccc(C)cc2)cc(OC)c1OC` and `COc1ccc(C(CNC(=O)c2n[nH]c(=O)c3ccccc23)Cc2ccccc2)cc1OC` (configuration not stated) are within 1.5-fold of each other in LC retention time: 15.9 min for the first, 13.3 min for the second.

`CC1=NC(=O)NC(c2ccccc2)C1C(=O)OCc1ccccc1` (configuration not stated) and `CC(c1ccccc1)N1CNc2c(c(=O)[nH]c(=O)n2Cc2ccccc2)C1` (configuration not stated) are within 1.5-fold of each other in LC retention time: 12.6 min for the first, 9.33 min for the second.

Compared with `C[n+]1cccc(C(N)=O)c1`, `CCN(CC)CCNC(=O)c1ccc(N)cc1` is 2.1-fold higher in LC retention time: 3.76 min for the first, 7.73 min for the second.

`CCN(CC)c1ccc(CNCCCN(C)C)cc1` and `CCCCCCN(C)C` are within 1.5-fold of each other in LC retention time: 7.76 min for the first, 8.53 min for the second.

`c1cnc2nc[nH]c2c1` and `CC(C)NCC(O)COc1cccc2[nH]ccc12` (configuration not stated) are within 1.5-fold of each other in LC retention time: 6.03 min for the first, 8.75 min for the second.

`CC1(N)CCC(C(C)(C)N)CC1` (configuration not stated) and `CC1CNCCN1` (configuration not stated) are within 1.5-fold of each other in LC retention time: 7.19 min for the first, 6.48 min for the second.

Going from `CC(=O)N1c2ccc(N)cc2CC1C` (configuration not stated) to `COc1ccc(C2NNc3nn(-c4ccccc4OC)nc32)cc1` (configuration not stated), the LC retention time rises from 7.53 min to 13.6 min (1.8-fold).

`CCCCC[N+]1(C)CCCC1` and `CCCNC` are within 1.5-fold of each other in LC retention time: 7.4 min for the first, 5.85 min for the second.

`CC(=O)NC1CCC2C3CC=C4CC(OC(C)=O)CCC4(C)C3CCC12C` (configuration not stated) and `Cc1c(C(=O)Nc2ccccn2)c(C(C)N=Nc2ccccc2)cc(=O)n1-c1ccccn1` (configuration not stated) are within 1.5-fold of each other in LC retention time: 16.7 min for the first, 11.7 min for the second.

In the case of `c1cncc(CNCc2cccnc2)c1`, the LC retention time is reported as 7.11 min.
